Reference: ChEMBL document CHEMBL1255225, “Antiviral activity of various 1-(2'-deoxy-β-D-lyxofuranosyl), 1-(2'-fluoro-β-D-xylofuranosyl), 1-(3'-fluoro-β-D-arabinofuranosyl), and 2'-fluoro-2',3'-didehydro-2',3'-dideoxyribose pyrimidine nucleoside analogues against duck hepatitis B virus (DHBV) and human hepatitis B virus (HBV) replication” (J Med Chem, 2010)

Experiments:
[1] = tested on: Hepatitis B virus; test: Antiviral activity against HBV assessed as inhibition of viral DNA replication relative to control; type: functional; design: concentration or dose not given beside the values
[2] = Cytotoxicity against HuH7 cells; type: cell-based, Huh-7; details: human
[3] = tested on: Duck hepatitis B virus; test: Antiviral activity against DHBV infected in duck hepatocytes assessed as inhibition of viral DNA replication relative to control; type: functional, Hepatocyte; design: concentration or dose not given beside the values
[4] = tested on: Hepatitis B virus; test: Antiviral activity against HBV assessed as inhibition of viral DNA replication at 10 ug/mL; type: functional; design: scale not given: the % may be the effect or the level left
[5] = tested on: Duck hepatitis B virus; test: Antiviral activity against DHBV infected in duck hepatocytes assessed as inhibition of viral DNA replication at 10 ug/ml; type: functional, Hepatocyte; design: scale not given: the % may be the effect or the level left
[6] = tested on: Hepatitis B virus; test: Antiviral activity against HBV assessed as inhibition of viral DNA replication; type: functional, organism-based
[7] = tested on: Duck hepatitis B virus; test: Antiviral activity against DHBV infected in duck hepatocytes assessed as inhibition of viral DNA replication; type: functional, organism-based; details: Hepatocyte
[8] = tested on: Duck hepatitis B virus; test: Antiviral activity against DHBV infected in duck hepatocytes assessed as inhibition of viral DNA replication at 1 ug/ml; type: functional, Hepatocyte; design: scale not given: the % may be the effect or the level left
[9] = tested on: Hepatitis B virus; test: Antiviral activity against drug resistant HBV infected in M204I cells assessed as inhibition of viral DNA replication; type: functional, organism-based
[10] = tested on: Hepatitis B virus; test: Antiviral activity against drug resistant HBV infected in M204I cells assessed as inhibition of viral DNA replication at 10 ug/mL; type: functional; design: scale not given: the % may be the effect or the level left
[11] = tested on: Hepatitis B virus; test: Antiviral activity against HBV assessed as inhibition of viral DNA replication at 0.5 to 1 ug/mL; type: functional; design: scale not given: the % may be the effect or the level left
[12] = tested on: Duck hepatitis B virus; test: Antiviral activity against DHBV infected in duck hepatocytes assessed as inhibition of viral DNA replication at 0.01 to 0.05 ug/mL; type: functional, Hepatocyte; design: scale not given: the % may be the effect or the level left
[13] = tested on: Hepatitis B virus; test: Antiviral activity against drug resistant HBV infected in M204I cells assessed as inhibition of viral DNA replication at 5 ug/mL; type: functional; design: scale not given: the % may be the effect or the level left
[14] = tested on: Hepatitis B virus; test: Antiviral activity against HBV assessed as inhibition of viral DNA replication at 5 ug/mL; type: functional; design: scale not given: the % may be the effect or the level left
[15] = tested on: Duck hepatitis B virus; test: Antiviral activity against DHBV infected in duck hepatocytes assessed as inhibition of viral DNA replication at 0.05 ug/ml; type: functional, Hepatocyte; design: scale not given: the % may be the effect or the level left
[16] = tested on: Hepatitis B virus; test: Antiviral activity against HBV assessed as inhibition of viral DNA replication at 1 ug/mL; type: functional; design: scale not given: the % may be the effect or the level left
[17] = tested on: Hepatitis B virus; test: Antiviral activity against drug resistant HBV infected in M204I cells assessed as inhibition of viral DNA replication at 1 ug/mL; type: functional; design: scale not given: the % may be the effect or the level left
[18] = tested on: Hepatitis B virus; test: Antiviral activity against HBV assessed as inhibition of viral DNA replication at 0.5 ug/mL; type: functional; design: scale not given: the % may be the effect or the level left
[19] = tested on: Hepatitis B virus; test: Antiviral activity against drug resistant HBV infected in M204I cells assessed as inhibition of viral DNA replication at 1 to 5 ug/mL; type: functional; design: scale not given: the % may be the effect or the level left

| SMILES | Activity [1] | CC50 [2] | Activity [3] | Activity [4] | Activity [5] | EC50 [6] | EC50 [7] | EC50 [9] | further results |
| --- | --- | --- | --- | --- | --- | --- | --- | --- | --- |
| O=c1[nH]c(=O)n([C@H]2C[C@H](O)[C@@H](CO)O2)cc1I [IDOXURIDINE] | 0% | > 282 µM | 0% |  |  |  |  |  |  |
| O=c1ccn([C@@H]2O[C@H](CO)[C@@H](F)[C@@H]2O)c(=O)[nH]1 |  | > 813 µM |  | 15% | 25% |  |  |  |  |
| O=c1[nH]c(=O)n([C@H]2CC(O)[C@@H](CO)O2)cc1C(F)(F)F (single isomer, unassigned) [TRIFLURIDINE] |  | > 675 µM |  | 55% | 70% | 33.7 µM | 3.37 µM | 33.7 µM | Activity [8]: 50%; Activity [10]: 50% |
| Cc1cn([C@H]2C[C@@H](O)[C@@H](CO)O2)c(=O)[nH]c1=O |  | > 826 µM |  | 50% | 65% | 41.3 µM | 4.13 µM |  | Activity [8]: 50%; Activity [10]: 45% |
| CCc1cn([C@H]2C[C@@H](O)[C@@H](CO)O2)c(=O)[nH]c1=O | 0% | > 781 µM | 0% |  |  |  |  |  |  |
| Cc1cn([C@H]2C[C@@H](O)[C@@H](CO)O2)c(=O)[nH]c1=S | 0% | > 775 µM | 0% |  |  |  |  |  |  |
| O=c1[nH]c(=O)n([C@H]2CC(O)[C@@H](CO)O2)cc1F (single isomer, unassigned) [FLOXURIDINE] | 0% | > 813 µM | 0% |  |  |  |  |  |  |
| Nc1ncnc2c1ncn2[C@H]1CC(O)[C@@H](CO)O1 (single isomer, unassigned) [DEOXYADENOSINE] |  |  |  | 36% | 40% |  |  |  |  |
| Nc1ccn([C@@H]2CS[C@H](CO)O2)c(=O)n1 [LAMIVUDINE] |  | > 873 µM |  |  |  | 0.22 µM | < 0.044 µM | > 44 µM | Activity [11]: 85%; Activity [12]: 95%; Activity [10]: 40% |
| Cc1cn([C@@H]2O[C@H](CO)[C@H](O)[C@H]2F)c(=O)[nH]c1=O |  | > 769 µM |  | 60% | 72% | 19.2 µM | 3.84 µM | 19.2 µM | Activity [13]: 50%; Activity [8]: 50%; Activity [14]: 50% |
| Cc1cn([C@@H]2O[C@H](CO)C=C2F)c(=O)[nH]c1=O |  | > 413 µM |  | 85% | 94% | 2 µM | 0.2 µM | 4.1 µM | Activity [15]: 50%; Activity [16]: 58%; Activity [8]: 67%; Activity [17]: 50%; Activity [18]: 50% |
| O=c1ccn([C@H]2C[C@@H](O)[C@@H](CO)O2)c(=O)[nH]1 | 0% | > 877 µM | 0% |  |  |  |  |  |  |
| Nc1nc(NC2CC2)c2ncn([C@H]3C=C[C@@H](CO)C3)c2n1 [ABACAVIR] |  |  |  |  |  |  |  | < 2.6 µM | Activity [19]: 80% |
| O=c1[nH]c(=O)n([C@H]2C[C@@H](O)[C@@H](CO)O2)cc1Br | 0% | > 651 µM | 0% |  |  |  |  |  |  |
| O=c1[nH]c(=O)n([C@H]2C[C@@H](O)[C@@H](CO)O2)cc1Cl |  | > 763 µM |  | 15% | 25% |  |  |  |  |
| CCc1cn([C@@H]2O[C@H](CO)C=C2F)c(=O)[nH]c1=O |  | > 781 µM |  | 50% | 50% | 39.1 µM | 39.1 µM | 39.1 µM | Activity [10]: 50% |
| Cc1cn([C@@H]2O[C@H](CO)[C@@H](F)[C@@H]2O)c(=O)[nH]c1=O | 0% | > 769 µM | 0% |  |  |  |  |  |  |
| O=c1ccn([C@@H]2O[C@H](CO)[C@H](O)[C@H]2F)c(=O)[nH]1 |  | > 813 µM |  | 40% | 50% |  | 40.6 µM |  |  |
